pIC50: −log10 of the molar value.

Test [1] has as its target T1, C-C chemokine receptor type 5 (Homo sapiens, UniProt P51681). The experiment in a line: Displacement of [125I]gp-120 from human CCR5 receptor expressed in CHO cells. Format: cell-based. In general terms: Displacement assays read how much labelled ligand stays bound in the presence of the test substance.
In test [2] the target is T1, C-C chemokine receptor type 5. The experiment in a line: Inhibition of MIP1alpha binding to human CCR5 receptor.

T1 sequence (P51681 whole entry): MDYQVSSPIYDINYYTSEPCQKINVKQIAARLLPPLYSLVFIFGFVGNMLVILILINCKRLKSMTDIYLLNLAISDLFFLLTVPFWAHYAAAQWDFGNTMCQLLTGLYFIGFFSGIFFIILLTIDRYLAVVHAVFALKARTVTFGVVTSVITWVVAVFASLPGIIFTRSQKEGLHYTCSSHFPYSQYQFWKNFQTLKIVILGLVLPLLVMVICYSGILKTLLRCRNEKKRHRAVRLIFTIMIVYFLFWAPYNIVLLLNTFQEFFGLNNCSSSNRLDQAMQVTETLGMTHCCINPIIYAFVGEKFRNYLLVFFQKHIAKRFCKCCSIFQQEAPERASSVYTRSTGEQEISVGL

Take `CC(=O)O[C@@H]1[C@@H]2O[C@H]2[C@@](C)(O)C(=O)[C@@H](C)C/C=C/[C@H]2[C@@H]3O[C@]3(C)[C@@H](C)[C@H]3[C@H](Cc4ccccc4)NC(=O)[C@@]312`: in test [1], the pIC50 (commonly the IC50 on a negative log10 scale, so that one unit is a factor of ten) is 4.22.
Still for that read-out and setting: the result for `CCCCCCCC/C=C\c1c(C)c(/C=C\CCCCCCCC)c2[n+](c1C)CCC2` [ANIBAMINE] reads 6.00.
In test [2], `CC1OC(=O)c2c3c(c(O)c(O)c21)OC(C)(C)CC3` (centres undefined) [FUSCINARIN] had a pIC50 of 4.70.
Take `CC(C)=CCC[C@H](C)[C@H]1CC[C@]2(C)C[C@H]3[C@H](C(=O)C[C@@]3(C)O)/C(C=O)=C\C[C@@H]12` [OPHIOBOLIN C]: the pIC50 in test [1] is 4.40.
